Biological target: T1, SST5 (Homo sapiens, UniProt P35346)
T1 construct: purchased Perkin Elmer BioSignal; host or cells: HEK 293
Experiment: GPCR radioligand binding (RLB) assay, somatostatin SST5, [125I]SST-14
Settings: for SST5 inhibition at 10 micromolar: recombinant human receptor membranes (HEK 293)
Method: Recombinant human receptors expressed in HEK 293 cells were used for all experiments. Receptor membrane preparations were purchased from Perkin Elmer BioSignal. The labelled ligand used in somatostatin GPCR RLB assays was [^125I]SST-14 and in melanocortin assays was [^125I]NDP-αMSH. All assays were done in a 96-well plate format using either glass fiber filter mats or filter plates. All reagents purchased were of the highest quality.
Specific assay buffer, incubation and washing conditions were optimized for each receptor however they all followed the same general format. The procedures for both filter mat and filter plate formats are based on the receptor manufacturers recommendations or those described extensively in the literature. The procedures are briefly outlined below.
In assays where filter mats are used we incubate receptor membranes, assay buffer and [^125I] labelled ligand in 96 well microplates. Add compounds to incubation mixture and continue incubation for optimized period. Presoak Filter mat GF/B in 0.5% PEI for ˜2 hr at 4° C. On completion of assay mixture incubation add additional 100 μL/well of assay buffer immediately prior to filtration. Filter the assay mixture onto the GF/B filter mat using a cell harvester. Dry the filter mats prior to sealing them into a scintillation counting bag with scintillant. Radioactivity in each well is detected by liquid scintillation counting.
In assays where filter plates are used Multiscreen glass fiber filter plates (Millipore, Cat No MAFCNOB10) are precoated with 0.5% PEI for ˜2 hr at 4° C. All wells are then washed with 200 µl/well assay buffer and filtered using the Multiscreen Separation System. Subsequently receptor membranes, assay buffer and labelled ligands are added to the wells and equilibrated. Compounds for testing are then added to the mixture and incubation is continued for an optimized time. Plates are then put into the Multiscreen Separation System and the assay mixture is filtered through the plate under vacuum. Each well is then washed several times with assay buffer. Plates are then dried prior to putting sealing tape onto the bottom of the plate. Scintillant is added to each well and radioactivity measured by liquid scintillation counting.
Raw data was analysed according to standard methods using either GraphPad Prism software or IDDBS ActivityBase software.

[1] = 10 micromolar, Example Library 4

T1 sequence (P35346 whole entry): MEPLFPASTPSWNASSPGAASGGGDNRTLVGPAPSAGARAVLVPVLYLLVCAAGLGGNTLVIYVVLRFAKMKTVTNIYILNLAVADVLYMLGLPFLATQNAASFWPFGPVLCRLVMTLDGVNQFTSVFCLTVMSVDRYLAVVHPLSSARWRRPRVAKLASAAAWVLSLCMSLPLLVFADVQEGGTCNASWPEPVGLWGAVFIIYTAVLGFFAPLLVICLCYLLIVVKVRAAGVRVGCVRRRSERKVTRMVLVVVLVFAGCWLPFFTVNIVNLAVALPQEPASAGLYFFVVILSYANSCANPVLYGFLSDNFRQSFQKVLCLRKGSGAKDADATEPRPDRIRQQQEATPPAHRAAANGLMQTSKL

| Compound | SST5 inhibition at 10 micromolar (10 micromolar compound) | other results |
| --- | --- | --- |
| CO[C@H]1[C@H](O)[C@@H](COCc2ccc3ccccc3c2)OC(OCc2ccc(-c3ccccc3)cc2)[C@@H]1NC(=O)CCNC(=N)N (stereo partly drawn) [Compound 60] | + (Indicates inhibition greater than . . . 50%) |  |
| COCC1OC(OCc2ccc3ccccc3c2)C(NC(=O)CCN)C(OCc2ccc3ccccc3c2)C1O (stereo not drawn) [Compound 304] |  | SSTS inhibition at 10 micromolar [1]: + (Indicates inhibition greater than . . . 50%) |
| COCC1OC(OCc2ccc3ccccc3c2)C(NC(=O)CN)C(OCc2ccc(-c3ccccc3)cc2)C1O (stereo not drawn) [Compound 296] |  | SSTS inhibition at 10 micromolar [1]: + (Indicates inhibition greater than . . . 50%) |
| COC[C@H]1OC(OCc2ccc3ccccc3c2)[C@H](NC(=O)CCCN)[C@@H](OCc2ccc(Cl)cc2)[C@@H]1O (stereo partly drawn) [Compound 42] | + (Indicates inhibition greater than . . . 50%) |  |
| COCC1OC(OCc2ccc(Cl)cc2)C(NC(=O)CCCN)C(OCc2ccccc2)C1O (stereo not drawn) [Compound 240] |  | SSTS inhibition at 10 micromolar [1]: + (Indicates inhibition greater than . . . 50%) |
| COC[C@H]1OC(OCc2ccc(Cl)cc2)[C@H](NC(=O)CCCN)[C@@H](OCc2ccc(Cl)cc2)[C@@H]1O (stereo partly drawn) [Compound 55] | + (Indicates inhibition greater than . . . 50%) |  |
| COC[C@H]1OC(OCCc2ccccc2)[C@H](NC(=O)CCCN)[C@@H](OCc2ccc(Cl)cc2)[C@@H]1O (stereo partly drawn) [Compound 51] | + (Indicates inhibition greater than . . . 50%) |  |
| CO[C@H]1[C@H](O)[C@@H](COCc2ccc(Cl)cc2)OC(OCc2cccc(O)c2)[C@@H]1NC(=O)CCCN (stereo partly drawn) [Compound 118] | + (Indicates inhibition greater than . . . 50%) |  |
| COCC1OC(OCc2ccccc2)C(NC(=O)CN)C(OCc2ccccc2)C1O (stereo not drawn) [Compound 213] |  | SSTS inhibition at 10 micromolar [1]: + (Indicates inhibition greater than . . . 50%) |
| COCC1OC(OCc2ccc3ccccc3c2)C(NC(=O)CCCN)C(OCc2ccc3ccccc3c2)C1O (stereo not drawn) [Compound 306] |  | SSTS inhibition at 10 micromolar [1]: + (Indicates inhibition greater than . . . 50%) |
| COC[C@H]1OC(OCc2ccc3ccccc3c2)[C@H](NC(=O)CCCNC(=N)N)[C@@H](OCc2ccccc2)[C@@H]1O (stereo partly drawn) [Compound 41] | + (Indicates inhibition greater than . . . 50%) |  |
| COC[C@H]1OC(OCc2ccc(Cl)cc2)[C@H](NC(=O)CCCN)[C@@H](OCc2ccc(-c3ccccc3)cc2)[C@@H]1O (stereo partly drawn) [Compound 44] | + (Indicates inhibition greater than . . . 50%) |  |
| COCC1OC(OCCc2ccccc2)C(NC(=O)CCCN)C(OCc2ccccc2)C1O (stereo not drawn) [Compound 264] |  | SSTS inhibition at 10 micromolar [1]: + (Indicates inhibition greater than . . . 50%) |
| COC[C@H]1OC(OCc2ccccc2)[C@H](NC(=O)CCCN)[C@@H](OCc2ccc(Cl)cc2)[C@@H]1O (stereo partly drawn) [Compound 11] | + (Indicates inhibition greater than . . . 50%) |  |
| CSC1OC(COCc2ccccc2)C(O)C(OCc2ccc(Cl)cc2)C1NC(=O)CCCN (stereo not drawn) [Compound 147] | + (Indicates inhibition greater than . . . 50%) |  |
| COC[C@H]1OC(OCCc2ccccc2)[C@H](NC(=O)CCCN)[C@@H](OCc2cccc(O)c2)[C@@H]1O (stereo partly drawn) [Compound 27] | + (Indicates inhibition greater than . . . 50%) |  |
| COCC1OC(OCc2ccc3ccccc3c2)C(NC(=O)CCCNC(=N)N)C(OCc2ccccc2)C1O (stereo not drawn) [Compound 289] |  | SSTS inhibition at 10 micromolar [1]: + (Indicates inhibition greater than . . . 50%) |
| CSC1OC(COC(=O)Cc2c[nH]c3ccccc23)C(O)C(OCc2cccc(N)c2)C1NCc1ccccc1 (stereo not drawn) [Compound 310] | + (Indicates inhibition greater than . . . 50%) |  |
| COC[C@H]1OC(OCc2cccc(O)c2)[C@H](NC(=O)CCNC(=N)N)[C@@H](OCc2ccc(-c3ccccc3)cc2)[C@@H]1O (stereo partly drawn) [Compound 21] | + (Indicates inhibition greater than . . . 50%) |  |
| CSC1OC(COCc2ccc(Cl)cc2)C(O)C(OCc2ccccc2)C1NC(=O)CN (stereo not drawn) [Compound 125] | + (Indicates inhibition greater than . . . 50%) |  |
| CO[C@H]1[C@H](O)[C@@H](COCc2cccc(O)c2)OC(OCc2ccc(Cl)cc2)[C@@H]1NC(=O)CCCN (stereo partly drawn) [Compound 111] | + (Indicates inhibition greater than . . . 50%) |  |
| COCC1OC(OCCc2ccccc2)C(NC(=O)CN)C(OCc2ccc(Cl)cc2)C1O (stereo not drawn) [Compound 266] |  | SSTS inhibition at 10 micromolar [1]: + (Indicates inhibition greater than . . . 50%) |
| COC[C@H]1OC(OCc2ccccc2)[C@H](NC(=O)CCCNC(=N)N)[C@@H](OCc2ccc(-c3ccccc3)cc2)[C@@H]1O (stereo partly drawn) [Compound 8] | + (Indicates inhibition greater than . . . 50%) |  |

| Compound | SST5 inhibition at 10 micromolar (10 micromolar compound) | other results |
| --- | --- | --- |
| COC[C@H]1OC(OCc2ccc(-c3ccccc3)cc2)[C@H](NC(=O)CCCN)[C@@H](OCc2ccccc2)[C@@H]1O (stereo partly drawn) [Compound 3] | + (Indicates inhibition greater than . . . 50%) |  |
| COC[C@H]1OC(OCc2ccc(Cl)cc2)[C@H](NC(=O)CCCN)[C@@H](OCc2cccc(O)c2)[C@@H]1O (stereo partly drawn) [Compound 26] | + (Indicates inhibition greater than . . . 50%) |  |
| COC[C@H]1OC(OCc2ccc(Cl)cc2)[C@H](NC(=O)CCCNC(=N)N)[C@@H](OCc2ccc(Cl)cc2)[C@@H]1O (stereo partly drawn) [Compound 18] | + (Indicates inhibition greater than . . . 50%) |  |
| CSC1OC(COCc2ccccc2)C(O)C(OCc2ccc3ccccc3c2)C1NC(=O)CCN (stereo not drawn) [Compound 193] | + (Indicates inhibition greater than . . . 50%) |  |
| COC[C@H]1OC(OCc2ccccc2)[C@H](NC(=O)CCCNC(=N)N)[C@@H](OCc2ccc(Cl)cc2)[C@@H]1O (stereo partly drawn) [Compound 12] | + (Indicates inhibition greater than . . . 50%) |  |
| COC[C@H]1OC(OCCc2ccccc2)[C@H](NC(=O)CCCNC(=N)N)[C@@H](OCc2ccc(Cl)cc2)[C@@H]1O (stereo partly drawn) [Compound 52] | + (Indicates inhibition greater than . . . 50%) |  |
| CSC1OC(COCc2ccc(Cl)cc2)C(O)C(OCc2ccc(Cl)cc2)C1NC(=O)CN (stereo not drawn) [Compound 149] | + (Indicates inhibition greater than . . . 50%) |  |
| CSC1O[C@H](COCc2ccccc2)[C@@H](O)[C@H](OCc2cccc(N)c2)[C@H]1NC(=O)Cc1c[nH]c2ccccc12 (stereo partly drawn) [Compound 319] | + (Indicates inhibition greater than . . . 50%) |  |
| CSC1O[C@H](COCc2ccc(Cl)cc2)[C@@H](O)[C@H](OCc2cccc(N)c2)[C@H]1NC(=O)c1ccccc1 (stereo partly drawn) [Compound 321] | + (Indicates inhibition greater than . . . 50%) |  |
| COCC1OC(OCc2ccc(Cl)cc2)C(NC(=O)CCN)C(OCc2ccccc2)C1O (stereo not drawn) [Compound 238] |  | SSTS inhibition at 10 micromolar [1]: + (Indicates inhibition greater than . . . 50%) |
| COCC1OC(OCc2ccccc2)C(NC(=O)CCN)C(OCc2ccccc2)C1O (stereo not drawn) [Compound 215] |  | SSTS inhibition at 10 micromolar [1]: + (Indicates inhibition greater than . . . 50%) |
| CO[C@H]1[C@H](O)[C@@H](COCc2ccccc2)OC(OCc2ccc(Cl)cc2)[C@@H]1NC(=O)CCCN (stereo partly drawn) [Compound 91] | + (Indicates inhibition greater than . . . 50%) |  |
| CSC1OC(COC(=O)Cc2c[nH]c3ccccc23)C(O)C(OCc2cccc(N)c2)C1NCc1ccc(Cl)cc1 (stereo not drawn) [Compound 315] | + (Indicates inhibition greater than . . . 50%) |  |
| CSC1OC(COCc2ccccc2)C(O)C(OCc2ccccc2)C1NC(=O)CN (stereo not drawn) [Compound 119] | + (Indicates inhibition greater than . . . 50%) |  |
| CO[C@H]1[C@H](O)[C@@H](COCc2cccc(O)c2)OC(OCc2ccc3ccccc3c2)[C@@H]1NC(=O)CCCN (stereo partly drawn) [Compound 109] | + (Indicates inhibition greater than . . . 50%) |  |
| COC[C@H]1OC(OCc2ccc3ccccc3c2)[C@H](NC(=O)CCCNC(=N)N)[C@@H](OCc2cccc(O)c2)[C@@H]1O (stereo partly drawn) [Compound 24] | + (Indicates inhibition greater than . . . 50%) |  |
| CSC1O[C@H](COCc2cccc(N)c2)[C@@H](O)[C@H](OCc2ccccc2)[C@H]1NC(=O)CCC1CNc2ccccc21 (stereo partly drawn) [Compound 337] |  | SSTS inhibition at 10 micromolar (10 micromolar compound, Example Library 8): + (Indicates inhibition greater than . . . 50%) |
| CSC1OC(COCc2ccc(Cl)cc2)C(O)C(OCc2ccc(Cl)cc2)C1NC(=O)CCCN (stereo not drawn) [Compound 153] | + (Indicates inhibition greater than . . . 50%) |  |
| COC[C@H]1OC(OCc2ccccc2)[C@H](NC(=O)CCCN)[C@@H](OCc2ccc3ccccc3c2)[C@@H]1O (stereo partly drawn) [Compound 54] | + (Indicates inhibition greater than . . . 50%) |  |
| CSC1OC(COCc2cccc(N)c2)C(O)C(OCc2ccccc2)C1NC(=O)Cc1c[nH]c2ccccc12 (stereo not drawn) [Compound 329] | + (Indicates inhibition greater than . . . 50%) |  |
| COCC1OC(OCc2ccccc2)C(NC(=O)CCCN)C(OCc2ccccc2)C1O (stereo not drawn) [Compound 217] |  | SSTS inhibition at 10 micromolar [1]: + (Indicates inhibition greater than . . . 50%) |
| COC[C@H]1OC(OCc2ccc(Cl)cc2)[C@H](NC(=O)CCNC(=N)N)[C@@H](OCc2ccc(Cl)cc2)[C@@H]1O (stereo partly drawn) [Compound 17] | + (Indicates inhibition greater than . . . 50%) |  |

Source: patent US7994140B2, “Classes of compounds that interact with GPCRs” (Alchemia Limited, priority 2002, dated 2011)
